Read-outs that look alike come from different tables or passages of the source.

Drawing on patent publication US7745636B2, “Hepatitis C virus inhibitors” (Bristol-Myers Squibb Company, priority 2006, dated 2010), this text covers EC50 for 14 molecules.

For the assay, the system named is HCV 1b-377-neo replicon cells. As to the kind of experiment: HCV Replicon assay, HCV 1b-377-neo replicon cells. The assay is classed as cell-based, HCV 1b genotype. The following applies: Table 2, read-out: Range (EC50 against HCV 1b).

In the case of `C[C@@H](c1ncc(-c2ccc(-c3ncc(-c4cnc([C@@H]5CCCN5C(=O)[C@@H](c5ccccc5)N(C)C)[nH]4)cn3)cc2)[nH]1)N(C)C(=O)[C@@H](c1ccccc1)N(C)C` [Example 152j-20, (2R)-2-(dimethylamino)-N-((1S)-1-(5-(4-(5-(2-((2S)-1-((2R)-2-(dimethylamino)-2-phenylacetyl)-2-pyrrolidinyl)-1H-imidazol-5-yl)-2-pyrimidinyl)phenyl)-1H-imidaozl-2-yl)ethyl)-N-methyl-2-phenylacetamide], the EC50 (Hepatitis C virus) fell in the range of 1000 to 99000 pM. In the case of `COC(=O)N[C@H](C(=O)N[C@H](c1ncc(-c2ccc(-c3ccc(-c4cnc([C@@H]5CCCN5C(=O)[C@@H](NC(=O)OC)C(C)C)[nH]4)cc3)cc2)[nH]1)C(C)OCc1ccccc1)C(C)C` (some centres unmarked) [Example R34], the EC50 (Hepatitis C virus) lay in the range of 1 to 999 pM. For the molecule `COC(=O)N[C@@H](C(=O)N1CCC[C@H]1c1ncc(-c2ccc(-c3ccc(-c4cnc([C@@H]5CCCN5C(=O)[C@H](NC(=O)OC)c5ccccc5)[nH]4)cn3)nc2)[nH]1)c1ccccc1` [Example 145, dimethyl(2,2′-bipyridine-5,5′-diylbis(1H-imidazole-5,2-diyl(2S)-2,1-pyrrolidinediyl((1R)-2-oxo-1-phenyl-2,1-ethanediyl)))biscarbamate], under “Hepatitis C virus”, the EC50 lay within 1 to 999 pM. Consider `COC(=O)NC(C(=O)NC(C)c1ncc(-c2ccc(-c3ccc(-c4cnc(C5CCCN5C(=O)C(NC(=O)OC)C(C)C)[nH]4)cc3)cc2)[nH]1)C(C)C` (centres unmarked) [Example R26], for which the EC50 lay in the range of 1 to 999 pM. `COC(=O)N[C@H](C(=O)N1CCC[C@H]1c1ncc(-c2ccc(-c3ccc(-c4cnc([C@@H]5CCCN5C(=O)[C@@H](NC(=O)OC)C(C)C)[nH]4)cc3CN(C)C)cc2)[nH]1)C(C)C` [Example M120, methyl((1S)-1-(((2S)-2-(5-(2-((dimethylamino)methyl)-4′-(2-((2S)-1-((2S)-2-((methoxycarbonyl)amino)-3-methylbutanoyl)-2-pyrrolidinyl)-1H-imidazol-5-yl)-4-biphenylyl)-1H-imidazol-2-yl)-1-pyrrolidinyl)carbonyl)-2-methylpropyl)carbamate]: under “Hepatitis C virus”, the EC50 fell in the range of 100000 to 999000 pM. In the case of `COC(=O)N[C@@H](C(=O)N1CCC[C@H]1c1ncc(-c2ccc(-c3ccc(-c4cnc([C@@H]5CCCN5C(=O)[C@@H](c5ccccc5)N(C)C)[nH]4)cn3)cc2)[nH]1)c1ccccc1` [Example 140, methyl((1R)-2-((2S)-2-(5-(4-(5-(2-((2S)-1-((2R)-2-(dimethylamino)-2-phenylacetyl)-2-pyrrolidinyl)-1H-imidazol-5-yl)-2-pyridinyl)phenyl)-1H-imidazol-2-yl)-1-pyrrolidinyl)-2-oxo-1-phenylethyl)carbamate], the EC50 (Hepatitis C virus) was 1 to 999 pM.

`COC(=O)N[C@@H](C(=O)N1CCC[C@H]1c1ncc(-c2ccc(-c3ccc(-c4cnc([C@@H]5CCCN5C(=O)[C@H](NC(=O)OC)c5ccccc5)[nH]4)cn3)cc2)[nH]1)c1ccccc1` [Example 134, methyl ((1R)-2-((2S)-2-(5-(6-(4-(2-((2S)-1-((2R)-2-((methoxycarbonyl)amino)-2-phenylacetyl)-2-pyrrolidinyl)-1H-imidazol-5-yl)phenyl)-3-pyridinyl)-1H-imidazol-2-yl)-1-pyrrolidinyl)-2-oxo-1-phenylethyl)carbamate]: the EC50 (Hepatitis C virus) was in the range of 1 to 999 pM. As to `COC(=O)N[C@@H](C(=O)N[C@@H](C)c1ncc(-c2cnc(-c3ccc(-c4cnc([C@@H]5CCCN5C(=O)[C@H](NC(=O)OC)c5ccccc5)[nH]4)cc3)cn2)[nH]1)c1ccccc1` [Example 152j-19, methyl ((1R)-2-((2S)-2-(5-(4-(5-(2-((1S)-1-(((2R)-2-((methoxycarbonyl)amino)-2-phenylace-tyl)amino)eth-yl)-1H-imidazol-5-yl)-2-pyrazinyl)phenyl)-1H-imidazol-2-yl)-1-pyrrolidinyl)-2-oxo-1-phenylethyl)carbamate], the EC50 (Hepatitis C virus) lay in the range of 1 to 999 pM.

In the case of `C[C@@H](c1ncc(-c2ccc(-c3ccc(-c4cnc([C@H](C)N(C)C(=O)[C@@H](c5ccccc5)N(C)C)[nH]4)cc3)cc2)[nH]1)N(C)C(=O)[C@@H](c1ccccc1)N(C)C` [Example 24-18-2, (2R,2′R)-N,N′-(4,4′-biphenyldiylbis (1H-imidazole-5,2-diyl(1S)-1,1-ethanediyl))bis(2-(dimethylamino)-N-methyl-2-phenylacetamide)], for the setting “Hepatitis C virus”, the EC50 was 1 to 999 pM. As to `CCN(CC)[C@@H](C(=O)N1CCC[C@H]1c1ncc(-c2cnc(-c3ccc(-c4[nH]c([C@@H]5CCCN5C(=O)[C@@H](c5ccccc5)N(CC)CC)nc4C(F)(F)F)cc3)nc2)[nH]1)c1ccccc1` [Example J47, (1R)-2-((2S)-2-(5-(4-(5-(2-((2S)-1-((2R)-2-(diethylamino)-2-phenylacetyl)-2-pyrrolidinyl)-1H-imidazol-5-yl)-2-pyrimidinyl)phenyl)-4-(trifluoromethyl)-1H-imidazol-2-yl)-1-pyrrolidinyl)-N,N-diethyl-2-oxo-1-phenylethanamine], the EC50 (Hepatitis C virus) was in the range of 1 to 999 pM. In the case of `COC(=O)N[C@@H](C(=O)N1CCC[C@H]1c1ncc(-c2ccc(-c3ccc(-c4cnc([C@@H]5CCCN5C(=O)[C@@H](c5ccccc5)N(C)C)[nH]4)cc3C)cc2)[nH]1)c1ccccc1` [Example 126, methyl ((1R)-2-((2S)-2-(5-(4′-(2-((2S)-1-((2R)-2-(dimethylamino)-2-phenylacetyl)-2-pyrrolidinyl)-1H-imidazol-5-yl)-2′-methyl-4-biphenylyl)-1H-imidazol-2-yl)-1-pyrrolidinyl)-2-oxo-1-phenylethyl)carbamate], the EC50 (Hepatitis C virus) was 1 to 999 pM. Take `COC(=O)N[C@@H](C(=O)N1CCC[C@H]1c1ncc(-c2ccc(-c3ccc(-c4cnc([C@@H]5CCCN5C(=O)C5CCN(C)CC5)[nH]4)cn3)cc2)[nH]1)c1ccccc1` [Example 142, methyl ((1R)-2-((2S)-2-(5-(4-(5-(2-((2S)-1-((1-methyl-4-piperidinyl)carbonyl)-2-pyrrolidinyl)-1H-imidazol-5-yl)-2-pyridinyl)phenyl)-1H-imidazol-2-yl)-1-pyrrolidinyl)-2-oxo-1-phenylethyl)carbamate]: where the note is “Hepatitis C virus”, the EC50 was in the range of 1000 to 99000 pM. Turning to `COC(=O)N[C@@H](C(=O)N[C@@H](C)c1ncc(-c2ccc(-c3ccc(-c4cnc([C@@H]5CCCN5C(=O)[C@H](NC(=O)OC)c5ccccc5)[nH]4)cc3)nc2)[nH]1)c1ccccc1` [Example 152j-22, methyl ((1R)-2-((2S)-2-(5-(4-(5-(2-((1S)-1-(((2R)-2-((methoxycarbonyl)amino)-2-phenylace-tyl)amino)eth-yl)-1H-imidazol-5-yl)-2-pyridinyl)phenyl)-1H-imidazol-2-yl)-1-pyrrolidinyl)-2-oxo-1-phenylethyl)carbamate], where the note is “Hepatitis C virus”, the EC50 was in the range of 1 to 999 pM. The same measure, in the same setting: then `COC(=O)N[C@H](C(=O)N1CCC[C@H]1c1ncc(-c2ccc(-c3ccc(-c4cnc([C@@H]5CCCN5C(=O)[C@@H](NC(=O)OC)C(C)C)[nH]4)cc3CO)cc2)[nH]1)C(C)C` [Example M119, methyl((1S)-1-(((2S)-2-(5-(2-(hydroxymethyl)-4′-(2-((2S)-1-((2S)-2-((methoxycarbonyl)amino)-3-methylbutanoyl)-2-pyrrolidinyl)-1H-imidazol-5-yl)-4-biphenylyl)-1H-imidazol-2-yl)-1-pyrrolidinyl)carbonyl)-2-methylpropyl)carbamate], with 100000 to 999000 pM.
